From US11596623B2, “Methods for treating virus infection or proliferation” (HOWARD UNIVERSITY, priority 2018, dated 2023)

Legend:
HSV-1 = HSV-1 viral protein western blot in HEp-2 cells; assay type: cell-based; conditions: pre-treated 24 hours at 100 μM; 24 h after infection
Text: Panel A of FIG. 3 depicts time and concentration dependent virus protein expression to deduce an optimum drug treatment regimen. […] Tubulin expression was used as the loading control for the blots.
HEp-2 cells (ATCC) were used for the infection of HSV-1. The cells were maintained in Dulbecco's Modified Eagle's medium (DMEM) supplemented with 10% fetal calf serum (FCS) and 1% penicillin-streptomycin (PS). Wild-type HSV-1 17 was obtained from R. D. Everett and used previously
Proteins were separated by SDS-PAGE (25 μg loaded in each lane), transferred to nitrocellulose membranes (Amersham Inc., Piscataway, N.J., USA), and blocked with 5% nonfat milk for 60 min at room temperature. Membranes were incubated overnight at 4° C. with primary antibody, followed by incubation with a horseradish peroxidase-coupled secondary antibody and detection with enhanced chemiluminescence (Pierce, Rockford, Ill., USA), according to standard methods. Membranes were stripped with stripping buffer (100 mM 2-mercaptoethanol, 2% SDS, 62.5 mM Tris-HCl, pH 6.8), washed with PBS-0.1% Tween-20, and used to detect additional proteins. For Arabidopsis lysates one-week old seedlings were treated with 10 uM of ABA in the presence/absence of the inhibitor compounds for 12 hours in a growth chamber (overnight) at 22° C. mostly in the dark. […]

[1] = molecular target: T1, recombinant RACK1A protein (Oryza sativa subsp. japonica, UniProt Q6L4F8); assay: Surface Plasmon Resonance (SPR) binding assay; parameters: species or system rice; conditions: immobilized recombinant RACK1A, KD50=kd/ka
T1 construct: His tag (C); made in house; host or cells: E. coli BL21(DE3)
Method: SD-29 (left panel) and SD-29-12 (right panel) were separately injected three times on the CM5 chip at 0, 1.56 μM, at 3.13 μM, 6.25 μM, 12.5 μM, 25 μM, 50 μM, and 100 μM (top sensor) concentrations (left panel) and at 3.13 μM, 6.25 μM, 12.5 μM, 25 μM, 50 μM, and 100 μM (top sensor) concentrations (right panel).
To obtain in vitro confirmation of the binding of the isolated compounds to the purified RACK1 protein, the small compound SD-29 and its structural analog SD29-12 were evaluated for their binding potential with the recombinant RACK1A proteins using the Surface Plasmon Resonance (SPR) chip. SPR experiments were carried out with a Biacore T200 equipped with a CM5 sensor chip. Briefly, recombinant RACK1A cysteine-tagged protein was immobilized on flow cell (FC) 2 in HEPES buffered saline (10 mM Hepes, pH 7.4, and 150 mM NaCl, 3 mM CaCl2)) using a thiol-coupling kit according to the manufacturer's protocol, resulting in immobilization levels of 4580 response units (RU). FC1 was only activated and inactivated and used as a reference. SD-29 stock solution was diluted to a final concentration of 100, 75, 50, 25, 10 μM and 1 μM injected in 10 mM Hepes, 150 mM NaCl, 3 mM CaCl2), 1% DMSO, and 0.5% P20. Each injection was repeated three times for 60 s. […] KD50 is calculated by the equation: KD50=kd/ka; kd—dissociation rate constant, ka—association rate constant. […]

RACK1 = molecular target: T2, RACK1 (Homo sapiens, UniProt P63244); assay: RACK1 protein western blot in HSV-1 infected HEp-2 cells; assay type: cell-based; conditions: pre-treated 24 hours at 100 μM; 24 h after HSV-1 infection
T2 construct: endogenous in cells; host or cells: HEp-2 cells (human laryngeal carcinoma line), virus-infected
Method: The virus used in this diagram is an HSV-1 F strain expressing luciferase (R8411 mutant) under the control of the ICP27 promoter and was a gift from Prof. Bernard Roizman (University of Chicago). HEp-2 cells were grown to 80-90% confluency in Dulbecco's Modified Eagle's medium (DMEM) supplemented with 10% fetal calf serum (PCS) and 1% penicillin-streptomycin (PS) and fungicide. The HSV-1 virus and the indicated concentration of compound(s) were added and incubated for 24 h (A of FIG. 13 and B of FIG. 13) and for 48 h in panel C samples. The luciferase signals were imaged and quantified in a Perkin Elmer IVIS Spectrum Imaging system. […] Three replicates from two separate experiments were combined to generate the average and the standard error bar. […] The compound(s) inhibit Y248 phosphorylation of RACK1 protein.
Proteins were separated by SDS-PAGE (25 μg loaded in each lane), transferred to nitrocellulose membranes (Amersham Inc., Piscataway, N.J., USA), and blocked with 5% nonfat milk for 60 min at room temperature. Membranes were incubated overnight at 4° C. with primary antibody, followed by incubation with a horseradish peroxidase-coupled secondary antibody and detection with enhanced chemiluminescence (Pierce, Rockford, Ill., USA), according to standard methods. […]

T1 sequence (Q6L4F8 whole entry): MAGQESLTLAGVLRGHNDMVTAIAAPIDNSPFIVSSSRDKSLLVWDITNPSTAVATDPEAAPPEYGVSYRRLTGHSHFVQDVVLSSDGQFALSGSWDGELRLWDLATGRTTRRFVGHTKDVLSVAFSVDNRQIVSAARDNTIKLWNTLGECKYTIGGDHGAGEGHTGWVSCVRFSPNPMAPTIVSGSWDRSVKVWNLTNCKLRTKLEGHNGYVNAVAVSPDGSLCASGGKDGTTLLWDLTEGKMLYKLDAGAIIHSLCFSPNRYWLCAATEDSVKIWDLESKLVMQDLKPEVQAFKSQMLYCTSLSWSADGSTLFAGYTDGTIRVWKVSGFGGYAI

In the case of `Nn1c(S)nnc1-c1ccc(F)cc1` [SD-29], the “HSV-1 protein production (ICP0, ICP8, gD)” value (HSV-1) is reported as “repressed HSV-1 protein production”, the Kd [1] is reported as 42 µM and the “production of RACK1” value (RACK1) is reported as “reduced the production of RACK1”.
